A short description of series [1]: Distribution of the peptide between dichloromethane (with phenol) and water. The format is physicochemical. The note with it: dichloromethane (12 cm^3) + 3.9 g phenol / aqueous KHCO3 2 N (3 cm^3); HPLC. On the procedure: With a view to purification of this tetrapeptide, by washing with water at the end of its synthesis, the distribution of this peptide between dichloromethane and water was studied as follows.
A solution of Gly-Gly-Phe-Leu-OBzl hydrochloride (0.9 mmole) in dichloromethane (12 cm^3) is stirred vigorously in the presence of an aqueous KHCO3 solution (2 N; 3 cm^3). This mixture yields an emulsion which remains stable for several days. A comparative experiment was carried out in the presence of phenol:
A distribution experiment carried out in accordance with Example 15 after the addition of 3.9 g of phenol to the organic solution yields, after identical stirring, two clear liquid phases, the settling out of which is complete in less than 15 minutes.

The nature of series [2]: Dissolving experiments: solubility of the peptide intermediate in solvent or solvent/additive mixture. The note with it: 25° C.; for Solubility in the 4/1 dichloromethane/phenol mixture: 4/1 dichloromethane/phenol by weight; for Solubility in 4/1 dichloromethane/dimethylformamide: comparison, additive not part of the invention.
Procedure: Protocol for dissolving experiments
The solubilities of the peptide intermediate were determined as follows, at a temperature of 25° C.
An accurately weighed amount of the peptide intermediate is placed in a Pyrex tube. The solvent or mixture of solvents to be tested is then introduced using a precision pipette so as to obtain a ratio of mass of peptide/volume of solvent of 8 g/100 cm^3.
The tube, closed by a screw stopper, is then placed on a HEIDOLPH agitator, TOP-MIX model, vibrating at its maximum speed for 60 seconds.
If not, the volume of solvent is doubled and the procedure is started again.
At the end of 4 successive dilutions without complete dissolution, the measurements are repeated on a smaller amount of solid.
Remarks: The composition of the solvent/additive mixtures is expressed by weight.
Series [3] in a line: Solubility in dichloromethane determined by HPLC, external standardization, on a saturated solution. Type of series: physicochemical. The procedure:
The solubility in dichloromethane was determined by HPLC, using external standardization, on a saturated solution of Boc-Gly5-OCH3.
The solubility in dichloromethane was determined by HPLC, by external standardization on the supernatant of a saturated solution; the other solubilities were determined as in Example 1: […]

The mark [4] stands for this setting: comparison additive, concentrations lower than 2 g/100 cm^3 were not tested.

Where a name gives a salt, the structure may show the parent alone. Where a SMILES comes first, the peptide text is derived from it. The star is where a group is joined. OBn = c1ccc(CO*)cc1

Data on eight molecules can be found in patent US6342582B1, “Reaction and dissolving medium for peptides and synthesis method using this medium” (Rhodia Chimie, priority 1990, dated 2002).

In the case of `CC(C)C[C@H](NC(=O)[C@H](Cc1ccccc1)NC(=O)CNC(=O)CN)C(=O)OCc1ccccc1` [Gly-Gly-Phe-Leu-OBzl, Glycyl-glycyl-L-phenylalanyl-L-leucine benzyl ester] (H-GGFL-OBn), the “Share of the tetrapeptide employed found in the aqueous phase” value in series [1] is 0.4%.
On to `NC(N)=NCCC[C@H](N)C(=O)N1CCC[C@H]1C(=O)O` [Afg-Pro.2HCl, L-arginyl-L-proline dihydrochloride] (H-Arg-Pro-OH), for which, in series [2], the “Solubility in the 4/1 dichloromethane/phenol mixture” value is on record as “s = 2 g/100 cm^3” and the Solubility in dichloromethane entry was “s < 0.05 g/100 cm^3”.
`CC(C)(C)OC(=O)NCC(=O)NCC(=O)NCC(=O)NCC(=O)NCC(=O)OCc1ccccc1` [Boc-Gly-Gly-Gly-Gly-Gly-O-CH2-Ph, N-tert-butoxycarbonylpentaglycine benzyl ester]: the “Solubility in dichloromethane (HPLC)” value in series [3] was “s = 0.07 g/100 cm^3”. Besides, in series [2] (9/1 dichloromethane/phenol by weight), the “Solubility in 9/1 dichloromethane/phenol” value is given as “s > 5 g/100 cm^3”. In series [2] (setting [4]), the “Solubility in 9/1 dichloromethane/2-octanol” value was “s < 2 g/100 cm^3”, the “Solubility in 9/1 dichloromethane/dimethylformamide” value is recorded as “s < 2 g/100 cm^3”, the “Solubility in 9/1 dichloromethane/pivalic acid” value is on record as “s < 2 g/100 cm^3” and the “Solubility in 9/1 dichloromethane/trifluoroethanol” value is “s < 2 g/100 cm^3”. Further, the “Solubility in dichloromethane saturated with LiCl” value in series [2] (setting [4]) is “s < 2 g/100 cm^3”.
`CC(C)C[C@H](N)C(=O)N[C@@H](CCCNC(=N)N)C(=O)N1CCC[C@H]1C(=O)NCC(N)=O` [Leu-Arg-Pro-Gly-NH2.HCl, L-leucyl-L-arginyl-L-prolyl-glycinamide hydro-chloride] (H-LRPG-NH2): the “Solubility in 4/1 dichloromethane/3-trifluoromethylphenol” value in series [2] (4/1 dichloromethane/3-trifluoromethylphenol by weight) is recorded as “s = 4 g/100 cm^3”. In addition, in series [2] (4/1 dichloromethane/4-methoxyphenol by weight), the “Solubility in 4/1 dichloromethane/4-methoxyphenol” value was “s = 4 g/100 cm^3”. In series [2], the “Solubility in 4/1 dichloromethane/dimethylformamide” value is on record as “s < 0.5 g/100 cm^3”, the “Solubility in the 4/1 dichloromethane/phenol mixture” value is listed as “s = 4 g/100 cm^3” and the Solubility in dichloromethane result is given as “s < 0.05 g/100 cm^3”. Moreover, the “Solubility in 5/1 dichloromethane/2-hydroxypyridine” value in series [2] (5/1 dichloromethane/2-hydroxypyridine by weight) was “s = 1 g/100 cm^3”.
`NC(=O)CNC(=O)[C@@H]1CCCN1` [Pro-Gly-NH2.HCl, L-prolyl-glycinamide hydrochloride] (H-Pro-Gly-NH2): in series [2], the “Solubility in 4/1 dichloromethane/dimethylformamide” value is “s < 0.5 g/100 cm^3”, the “Solubility in the 4/1 dichloromethane/phenol mixture” value was “s > 16 g/100 cm^3” and the Solubility in dichloromethane entry is reported as “s < 0.05 g/100 cm^3”.
Regarding `COC(=O)CNC(=O)CNC(=O)CNC(=O)CNC(=O)CNC(=O)OC(C)(C)C` [Boc-Gly5-OCH3, N-tert-butoxycarbonylpentaglycine methyl ester], in series [3], the “Solubility in dichloromethane (HPLC)” value is “s = 0.33 g/100 cm^3”. The “Solubility in 2-chlorophenol” value in series [2] (2-chlorophenol alone) is “s > 8 g/100 cm^3”. In series [2] (4/1 anisole/phenol by weight), the “Solubility in 4/1 anisole/phenol” value is reported as “s = 4 g/100 cm^3”. In addition, the “Solubility in the 4/1 dichloromethane/phenol mixture” value in series [2] is reported as “s = 4 g/100 cm^3”. Also, the “Solubility in 20/1 dichloromethane/phenol” value in series [2] (20/1 dichloromethane/phenol by weight) is given as “s = 0.5 g/100 cm^3”. In addition, the Solubility in anisole entry in series [2] (anisole) is “s < 0.05 g/100 cm^3”.
As to `N[C@@H](Cc1c[nH]cn1)C(=O)N[C@@H](Cc1c[nH]c2ccccc12)C(=O)O` [His,Trp.HCl, L-histidinyl-L-tryptophan hydrochloride], in series [2], the “Solubility in the 4/1 dichloromethane/phenol mixture” value is on record as “s = 2 g/100 cm^3” and the Solubility in dichloromethane result is listed as “s < 0.05 g/100 cm^3”.
Regarding `COC(=O)[C@H](Cc1ccc(O)cc1)NC(=O)[C@@H](N)CO` [Ser-Tyr-OCH3.HCl, L-serinyl-L-tyrosine methyl ester hydrochloride] (H-Ser-Tyr-OMe), the Solubility in dichloromethane result in series [2] was “s < 0.05 g/100 cm^3”.
